Columns and labels:
[1] = target: T1, Histamine H3 receptor (Rattus norvegicus, UniProt Q9QYN8); assay: Binding potency was determined by displacement of [3H]N-alpha-methyl histamine from histamine H3 receptor of rat cortical membranes; type: cell membranes, Membrane
[2] = target: Histamine H3 receptor (Homo sapiens, UniProt Q9Y5N1); assay: Binding potency was determined by displacement of [3H]N-alpha-methyl histamine from cloned human histamine H3 receptor expressed in C6 cells; type: cell-based
[3] = target: T1, Histamine H3 receptor; assay: pBinding potency by displacement of [3H]N-alpha-methyl histamine from histamine H3 receptor of rat cortical membranes; type: cell membranes, Membrane
[4] = target: T1, Histamine H3 receptor; assay: Binding potency by displacement of [3H]N-alpha-methyl histamine from histamine H3 receptor of rat cortical membranes; type: cell membranes, Membrane

T1 sequence (Q9QYN8 whole entry): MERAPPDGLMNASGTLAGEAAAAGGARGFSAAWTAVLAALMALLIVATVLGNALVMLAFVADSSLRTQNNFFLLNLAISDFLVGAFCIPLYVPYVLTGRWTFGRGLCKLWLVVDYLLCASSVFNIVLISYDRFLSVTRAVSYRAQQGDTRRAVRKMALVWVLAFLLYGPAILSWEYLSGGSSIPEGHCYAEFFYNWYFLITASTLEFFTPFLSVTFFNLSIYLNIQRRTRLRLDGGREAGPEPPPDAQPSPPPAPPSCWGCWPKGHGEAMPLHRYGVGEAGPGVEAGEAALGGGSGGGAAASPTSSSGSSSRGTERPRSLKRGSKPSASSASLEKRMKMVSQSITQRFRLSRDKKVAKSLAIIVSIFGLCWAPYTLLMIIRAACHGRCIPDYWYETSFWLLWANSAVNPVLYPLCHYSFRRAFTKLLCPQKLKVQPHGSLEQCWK
Sequence of Histamine H3 receptor (Homo sapiens, UniProt Q9Y5N1) (Q9Y5N1 whole entry): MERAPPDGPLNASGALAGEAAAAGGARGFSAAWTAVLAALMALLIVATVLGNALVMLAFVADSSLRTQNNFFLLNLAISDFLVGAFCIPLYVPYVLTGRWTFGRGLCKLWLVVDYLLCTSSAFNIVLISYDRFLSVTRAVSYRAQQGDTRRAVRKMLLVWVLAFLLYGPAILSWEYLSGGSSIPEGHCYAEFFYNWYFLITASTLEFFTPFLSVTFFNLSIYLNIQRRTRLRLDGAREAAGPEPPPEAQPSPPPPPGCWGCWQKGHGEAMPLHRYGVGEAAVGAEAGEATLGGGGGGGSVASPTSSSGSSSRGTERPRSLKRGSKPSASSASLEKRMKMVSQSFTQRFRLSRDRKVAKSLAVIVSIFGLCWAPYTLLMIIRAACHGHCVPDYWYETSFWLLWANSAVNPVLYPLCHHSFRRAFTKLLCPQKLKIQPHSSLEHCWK

Structure (SMILES) | Ki [1] | Ki [2] | Ki [3] | Ki [4]
N#Cc1ccc(-c2ccc3oc(CCN4CCCCCC4)cc3c2)cc1 |  | 7.8 nM |  | 
CN(C)[C@H]1CCN(CCc2cc3cc(-c4ccc(C#N)cc4)ccc3o2)C1 | 140 nM | 49 nM |  | 
N#Cc1ccc(-c2ccc3oc(CCn4ccnc4)cc3c2)cc1 |  | 600 nM |  | 
N#Cc1ccc(-c2ccc3oc(CCN4CCC[C@@H]4CC(=O)O)cc3c2)cc1 | 1600 nM | 320 nM |  | 
N#Cc1ccc(-c2ccc3oc(CCN4CCC[C@@H]4CO)cc3c2)cc1 |  | 18 nM |  | 
O=C(c1ccc(-c2ccc3oc(CCN4CCCCCC4)cc3c2)nc1)N1CCOCC1 | 33 nM | 16 nM |  | 
O=C(c1ccc(-c2ccc3oc(CCN4CCOCC4)cc3c2)nc1)N1CCOCC1 | 260 nM |  |  | 
CC1CCN(CCc2cc3cc(-c4ccc(C#N)cc4)ccc3o2)CC1 | 16 nM | 15 nM |  | 
CC1CCCCN1CCc1cc2cc(-c3ccc(C#N)cc3)ccc2o1 (stereo unspecified) |  | 5.8 nM |  | 
N#Cc1ccc(-c2ccc3oc(CCN4CC=CCC4)cc3c2)cc1 | 50 nM | 10 nM |  | 
N#Cc1ccc(-c2ccc3oc(CCN4CCCCC4)cc3c2)cc1 |  | 8.8 nM |  | 
N#Cc1ccc(-c2ccc3oc(CCN4CCC(O)C4)cc3c2)cc1 (stereo unspecified) | 95 nM | 8.8 nM |  | 
O=C(c1ccc(-c2ccc3oc(CCN4CCCC4)cc3c2)nc1)N1CCOCC1 | 29 nM | 3.9 nM |  | 
O=C(c1ccc(-c2ccc3oc(CCN4CCC[C@@H]4CO)cc3c2)nc1)N1CCOCC1 | 110 nM | 36 nM |  | 
N#Cc1ccc(-c2ccc3oc(CCN4CCC[C@H]4CO)cc3c2)cc1 |  | 2.2 nM |  | 
O=C(c1ccc(-c2ccc3oc(CCN4CCCCC4)cc3c2)nc1)N1CCOCC1 | 49 nM | 12 nM |  | 
CN(C)[C@@H]1CCN(CCc2cc3cc(-c4ccc(C#N)cc4)ccc3o2)C1 | 63 nM | 16 nM |  | 

Results, then the compound that gave them:

Ki [1] | Ki [2] | Ki [3] | Ki [4] | Structure (SMILES)
14 nM | 3 nM |  |  | CC1CCCCN1CCc1cc2cc(-c3ccc(C(=O)N4CCOCC4)cc3)ccc2o1 (stereo unspecified)
17 nM | 5.9 nM |  |  | O=C(c1ccc(-c2ccc3oc(CCN4CC=CCC4)cc3c2)cc1)N1CCOCC1
1.6 nM | 0.55 nM |  |  | C[C@@H]1CCCN1CCc1cc2cc(-c3ccc(C(=O)N4CCOCC4)cn3)ccc2o1
35 nM | 6.2 nM |  |  | O=C(c1ccc(-c2ccc3oc(CCN4CC[C@@H](O)C4)cc3c2)cc1)N1CCOCC1
 | 17 nM |  |  | CC1CCN(CCc2cc3cc(-c4ccc(C(=O)N5CCOCC5)cc4)ccc3o2)CC1
6.9 nM | 1.9 nM |  |  | O=C(c1ccc(-c2ccc3oc(CCN4CCC[C@H]4CO)cc3c2)cc1)N1CCOCC1
1.95 nM | 0.7 nM | 2 nM |  | C[C@@H]1CCCN1CCc1cc2cc(-c3ccc(C(=O)N4CCOCC4)cc3)ccc2o1
26 nM | 5.9 nM |  |  | C[C@@H]1CC[C@@H](C)N1CCc1cc2cc(-c3ccc(C(=O)N4CCOCC4)cn3)ccc2o1
160 nM | 45 nM |  |  | O=C(c1ccc(-c2ccc3oc(CCN4CCOCC4)cc3c2)cc1)N1CCOCC1
151 nM | 87 nM |  |  | CC1CCN(CCc2cc3cc(-c4ccc(C(=O)N5CCOCC5)cn4)ccc3o2)CC1
6.6 nM | 1.2 nM |  |  | C[C@@H]1CCC[C@H](C)N1CCc1cc2cc(-c3ccc(C(=O)N4CCOCC4)cc3)ccc2o1
42 nM | 5.1 nM |  |  | C[C@@H]1CC[C@@H](C)N1CCc1cc2cc(-c3ccc(C#N)cc3)ccc2o1
 | 3.5 nM |  |  | O=C(c1ccc(-c2ccc3oc(CCN4CCCCCC4)cc3c2)cc1)N1CCOCC1
 | 2.2 nM |  |  | C[C@@H]1CC[C@@H](C)N1CCc1cc2cc(-c3ccc(C(=O)N4CCOCC4)cc3)ccc2o1
6.2 nM | 2.3 nM |  |  | O=C(c1ccc(-c2ccc3oc(CCN4CCCCC4)cc3c2)cc1)N1CCOCC1
44.7 nM | 5.6 nM |  | 45 nM | C[C@@H]1CCC[C@H](C)N1CCc1cc2cc(-c3ccc(C(=O)N4CCOCC4)cn3)ccc2o1
22 nM | 2.4 nM |  |  | C[C@@H]1CCC[C@H](C)N1CCc1cc2cc(-c3ccc(C#N)cc3)ccc2o1
 | 12 nM |  |  | O=C(c1ccc(-c2ccc3oc(CCN4CCC(O)C4)cc3c2)nc1)N1CCOCC1 (stereo unspecified)

Reference: ChEMBL document CHEMBL1147428, “A new class of potent non-imidazole H(3) antagonists: 2-aminoethylbenzofurans” (Bioorg Med Chem Lett, 2004)
